Our source for the EC50 values is patent US10301260B2, “Pyrrolidine GPR40 modulators” (BRISTOL-MYERS SQUIBB COMPANY, priority 2014, dated 2019).

Where a name gives a salt, the structure may show the parent alone.

T1 sequence (O14842 whole entry): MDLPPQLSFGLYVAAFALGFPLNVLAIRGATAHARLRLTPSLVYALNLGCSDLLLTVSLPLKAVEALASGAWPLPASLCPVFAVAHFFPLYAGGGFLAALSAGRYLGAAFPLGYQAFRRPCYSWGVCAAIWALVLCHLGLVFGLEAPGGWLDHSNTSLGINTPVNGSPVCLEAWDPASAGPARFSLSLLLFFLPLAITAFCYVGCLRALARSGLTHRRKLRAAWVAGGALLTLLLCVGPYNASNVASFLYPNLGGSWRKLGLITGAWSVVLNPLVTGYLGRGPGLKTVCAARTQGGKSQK

This assay concerns the target T1, hGPR40 (Homo sapiens, UniProt O14842).
T1 construct: 3xFLAG; expressed in transfected cells
The assay is described as follows: FDSS-based intracellular calcium assay (Human GRP40 In Vitro assay). Format: cell-based. The following applies: cells expressing GPR40, intracellular Ca2+ response. On the procedure:
FDSS-Based Intracellular Calcium Assay
Cell lines expressing GPR40 are generated using the pDEST-3xFLAG gene expression system and are cultured in culture medium comprising the following components: F12 (Gibco #11765), 10% lipid deprived fetal bovine serum, 250 μg/ml zeocin and 500 μg/ml G418. To conduct the fluorescent imaging plate reader (FLIPR)-based calcium flux assay to measure intracellular Ca^2+ response, cells expressing GPR40 are plated on 384 well plates (BD Biocoat #356697) at a density of 20,000 cells/20 μL medium per well in phenol red and serum-free DMEM (Gibco #21063-029) and incubated overnight. Using BD kit #s 80500-310 or -301, the cells are incubated with 20 μL per well of Hank's buffered salt solution with 1.7 mM probenecid and Fluo-3 at 37° C. for 30 min. Compounds are dissolved in DMSO and diluted to desired concentrations with assay buffer and added to the cells as 3× solution (20 μL per well). Run fluorescence/luminescence reader FDSS (Hamamatsu) to read intracellular Ca^2+ response.
The exemplified Examples disclosed below were tested in the Human GRP40 In Vitro assay described above and found having hGRP40 modulating activity.
As to `COc1ccc(F)c(-c2ccc(Cc3ccc(N4CC(c5cc(C)no5)CC4CC(=O)O)cc3)c(C)c2)c1` (single isomer, unassigned) [Example 9, Isomer 1, 2-(1-(4-((2′-Fluoro-5′-methoxy-3-methyl-[1,1′-biphenyl]-4-yl)methyl)phenyl)-4-(3-methylisoxazol-5-yl)pyrrolidin-2-yl)acetic Acid, HCl], the EC50 was 150 nM.
With `COc1ccc(F)c(-c2ccc(Cc3ccc(N4CC(c5cc(C)no5)CC4CC(=O)O)cc3)c(C)c2)c1` (single isomer, unassigned) [Example 9, Isomer 2, 2-(1-(4-((2′-Fluoro-5′-methoxy-3-methyl-[1,1′-biphenyl]-4-yl)methyl)phenyl)-4-(3-methylisoxazol-5-yl)pyrrolidin-2-yl)acetic Acid, HCl] the figure was 2200 nM; with `COc1ccc(F)c(-c2ccc(Cc3ccc(N4CC(c5cc(C)no5)CC4CC(=O)O)cc3)c(C)c2)c1` (single isomer, unassigned) [Example 9, Isomer 3, 2-(1-(4-((2′-Fluoro-5′-methoxy-3-methyl-[1,1′-biphenyl]-4-yl)methyl)phenyl)-4-(3-methylisoxazol-5-yl)pyrrolidin-2-yl)acetic Acid, HCl], 1400 nM.
The result for `COc1ccc(F)c(-c2ccc(Cc3ccc(N4CC(c5cc(C)no5)CC4CC(=O)O)cc3)c(C)c2)c1` (single isomer, unassigned) [Example 9, Isomer 4, 2-(1-(4-((2′-Fluoro-5′-methoxy-3-methyl-[1,1′-biphenyl]-4-yl)methyl)phenyl)-4-(3-methylisoxazol-5-yl)pyrrolidin-2-yl)acetic Acid, HCl] reads 3500 nM; that for `COc1ccc(F)c(-c2ccc(Cc3ccc(N4CC(c5ccon5)CC4CC(=O)O)cc3)c(C)c2)c1` (single isomer, unassigned) [Example 11, Isomer 1, 2-(1-(4-((2′-Fluoro-5′-methoxy-3-methyl-[1,1′-biphenyl]-4-yl)methyl)phenyl)-4-(isoxazol-3-yl)pyrrolidin-2-yl)acetic Acid, HCl], 8100 nM; that for `COc1ccc(F)c(-c2ccc(Cc3ccc(N4CC(c5ccon5)CC4CC(=O)O)cc3)c(C)c2)c1` (single isomer, unassigned) [Example 11, Isomer 2, 2-(1-(4-((2′-Fluoro-5′-methoxy-3-methyl-[1,1′-biphenyl]-4-yl)methyl)phenyl)-4-(isoxazol-3-yl)pyrrolidin-2-yl)acetic Acid, HCl], 550 nM.
Take `COc1ccc(F)c(-c2ccc(Cc3ccc(N4CC(c5cccc(Cl)c5)C[C@@H]4CC(=O)O)cc3)c(C)c2)c1` (single isomer, unassigned) [Example 12, Isomer 1, HCl]: the EC50 came out at 160 nM.
With `COc1ccc(F)c(-c2ccc(Cc3ccc(N4CC(c5cccc(Cl)c5)C[C@@H]4CC(=O)O)cc3)c(C)c2)c1` (single isomer, unassigned) [Example 12, Isomer 2, HCl], the EC50 amounted to 10 nM.
With `COc1ccc(F)c(-c2ccc(Cc3ccc(N4C[C@@H](N5CCCCC5)C[C@@H]4CC(=O)O)cc3)c(C)c2)c1` (single isomer, unassigned) [Example 13, Isomer 1], the EC50 is 6700 nM.
On to `COc1ccc(F)c(-c2ccc(Cc3ccc(N4C[C@H](N5CCCCC5)C[C@@H]4CC(=O)O)cc3)c(C)c2)c1` (single isomer, unassigned) [Example 13, Isomer 2], for which the EC50 is 2800 nM.
Regarding `COc1ccc(F)c(-c2ccc(Cc3ccc(N4C[C@H](c5ccccc5OC)C[C@@H]4CC(=O)O)cc3)c(C)c2)c1` (single isomer, unassigned) [Example 15, Isomer 1, HCl], the EC50 was determined as 39 nM.
Regarding `COc1ccc(F)c(-c2ccc(Cc3ccc(N4C[C@@H](c5ccccc5OC)C[C@@H]4CC(=O)O)cc3)c(C)c2)c1` (single isomer, unassigned) [Example 15, Isomer 2, HCl], the EC50 was determined as 61 nM.
As to `COc1ccc(F)c(-c2ccc(Cc3ccc(N4C[C@H](c5ccccc5)C[C@@H]4CC(=O)O)cc3)c(C)c2)c1` [Example 1, 2-((2R,4S)-1-(4-((2′-Fluoro-5′-methoxy-3-methylbiphenyl-4-yl)methyl)phenyl)-4-phenylpyrrolidin-2-yl)acetic Acid, HCl], the EC50 was 15 nM.
As to `COc1ccc(F)c(-c2ccc(Cc3ccc(N4CC(C#N)CC4CC(=O)O)cc3)c(C)c2)c1` (centres unmarked) [Example 2, 2-(4-Cyano-1-(4-((2′-fluoro-5′-methoxy-3-methylbiphenyl-4-yl)methyl)phenyl)pyrrolidin-2-yl)acetic Acid, TFA], the EC50 was 270 nM.
Regarding `COc1ccc(F)c(-c2ccc(Cc3ccc(N4C[C@H](C5CCCCC5)C[C@@H]4CC(=O)O)cc3)c(C)c2)c1` [Example 3, 2-((2R,4S)-4-Cyclohexyl-1-(4-((2′-fluoro-5′-methoxy-3-methyl-[1,1′-biphenyl]-4-yl)methyl)phenyl)pyrrolidin-2-yl)acetic Acid, HCl], the EC50 turned out to be 13 nM.
As to `COc1ccc(F)c(-c2ccc(Cc3ccc(N4C[C@H](c5ccc(-c6ccccc6)cc5)C[C@@H]4CC(=O)O)cc3)c(C)c2)c1` [Example 4, 2-((2R,4S)-4-([1,1′-Biphenyl]-4-yl)-1-(4-((2′-fluoro-5′-methoxy-3-methyl-[1,1′-biphenyl]-4-yl)methyl)phenyl)pyrrolidin-2-yl)acetic Acid, HCl], the EC50 amounted to 210 nM.
For the molecule `COc1ccc(F)c(-c2ccc(Cc3ccc(N4C[C@@H](c5ccccc5)C[C@@H]4CC(=O)O)cc3)c(C)c2)c1` [Example 5, 2-((2R,4R)-1-(4-((2′-Fluoro-5′-methoxy-3-methyl-[1,1′-biphenyl]-4-yl)methyl)phenyl)-4-phenylpyrrolidin-2-yl)acetic Acid], the EC50 came out at 130 nM.
Turning to `COc1ccc(F)c(-c2ccc(Cc3ccc(N4C[C@](OC)(c5ccc(-c6ccccc6)cc5)C[C@@H]4CC(=O)O)cc3)c(C)c2)c1` [Example 6, 2-((2R,4R)-4-([1,1′-Biphenyl]-4-yl)-1-(4-((2′-fluoro-5′-methoxy-3-methyl-[1,1′-biphenyl]-4-yl)methyl)phenyl)-4-methoxypyrrolidin-2-yl)acetic Acid, HCl], the EC50 was 77 nM.
In the case of `COCCO[C@@H]1C[C@H](CC(=O)O)N(c2ccc(Cc3ccc(-c4cc(OC)ccc4F)cc3C)cc2)C1` [Example 7, 2-((2R,4R)-1-(4-((2′-Fluoro-5′-methoxy-3-methyl-[1,1′-biphenyl]-4-yl)methyl)phenyl)-4-(2-methoxyethoxy)pyrrolidin-2-yl)acetic Acid, HCl], the EC50 was found to be 240 nM.
`COc1ccc(F)c(-c2ccc(Cc3ccc(N4C[C@H](c5cccnc5)C[C@@H]4CC(=O)O)cc3)c(C)c2)c1` [Example 8, 2-((2R,4S)-1-(4-((2′-Fluoro-5′-methoxy-3-methyl-[1,1′-biphenyl]-4-yl)methyl)phenyl)-4-(pyridin-3-yl)pyrrolidin-2-yl)acetic Acid, HCl]: the EC50 stood at 94 nM.
For the molecule `COc1ccc(F)c(-c2ccc(Cc3ccc(N4C[C@@H](c5ccccn5)C[C@@H]4CC(=O)O)cc3)c(C)c2)c1` [Example 10, 2-((2R,4S)-1-(4-((2′-Fluoro-5′-methoxy-3-methyl-[1,1′-biphenyl]-4-yl)methyl)phenyl)-4-(pyridin-2-yl)pyrrolidin-2-yl)acetic Acid, HCl], the EC50 is 1400 nM.
Regarding `COc1ccc(F)c(-c2ccc(COc3ccc(N4C[C@H](c5ccccc5)C[C@@H]4CC(=O)O)cc3)c(C)c2)c1` [Example 16, 2-((2R,4S)-1-(4-((2′-Fluoro-5′-methoxy-3-methyl-[1,1′-biphenyl]-4-yl)methoxy)phenyl)-4-phenylpyrrolidin-2-yl)acetic Acid, HCl], the concentration for a half-maximal effect (EC50) came out at 1000 nM.
With `COCCCO[C@H]1CN(c2ccc(Cc3ccc(-c4cc(OC)ccc4F)cc3C)cc2)[C@@H](CC(=O)O)[C@@H]1C` [Example 17, 2-((2S,3S,4R)-1-(4-((2′-Fluoro-5′-methoxy-3-methyl-[1,1′-biphenyl]-4-yl)methyl)phenyl)-4-(3-methoxypropoxy)-3-methylpyrrolidin-2-yl)acetic Acid, HCl] the figure was 39 nM.
